Measurements as given in the supplement of paper PMC10307832.

Key:
Experiment in all cases: relative viability (nuclei count vs DMSO), 5 days (fraction); higher = more cells survive
[1] = system: ABC-1
In short: (§1)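 Lung cancer cell lines were seeded in 1536-well plates and dosed by pin tool the next day, with either a single drug or a fixed anchor-drug dose combined with five library-drug doses (not always all listed) spaced in √10 steps. Five days later, one step fixed the cells and stained their nuclei (final 0.05% Triton X-100, 1% formaldehyde, 1 ug/ml Hoechst), and nuclei were counted on 4× images. Relative viability is the nuclei count in treated wells divided by the count in vehicle wells, and each value is the median of duplicate plates.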

[2] = system: BEN
In short: as §1

[3] = system: CAL-12T
In short: as §1

[4] = system: EKVX
In short: as §1

[5] = system: EMC-BAC-2
In short: as §1

[6] = system: H3255
In short: as §1

[7] = system: LC-2-ad
In short: as §1

[8] = system: LU99A
In short: as §1

[9] = system: NCI-H1355
In short: as §1

[10] = system: NCI-H1650
In short: as §1

[11] = system: NCI-H1734
In short: as §1

[12] = system: NCI-H1792
In short: as §1

[13] = system: NCI-H1993
In short: as §1

[14] = system: NCI-H2009
In short: as §1

[15] = system: NCI-H2085
In short: as §1

[16] = system: NCI-H2087
In short: as §1

[17] = system: NCI-H2342
In short: as §1

[18] = system: NCI-H520
In short: as §1

[19] = system: NCI-H522
In short: as §1

[20] = system: NCI-H661
In short: as §1

[21] = system: NCI-H838
In short: as §1

[22] = system: SK-LU-1
In short: as §1

[23] = system: SK-MES-1
In short: as §1

[24] = system: SW 1573
In short: as §1

[25] = system: UMC-11
In short: as §1

For `Nc1cccc2c1CN(C1CCC(=O)NC1=O)C2=O` (stereo not given) [Lenalidomide] + CCNC(=O)c1noc(-c2cc(C(C)C)c(O)cc2O)c1-c1ccc(CN2CCOCC2)cc1 [Luminespib] (partner 0.01 µM), the relative viability ([1]; first compound 0.253 µM) was 0.908, the relative viability ([1]; first compound 2.53 µM) was 0.684 and the relative viability ([1]; first compound 8 µM) was 0.517. For the same compound, the relative viability ([2]; first compound 0.253 µM) was 0.427, the relative viability ([2]; first compound 0.8 µM) was 0.233 and the relative viability ([2]; first compound 2.53 µM) was 0.607. For the same compound, the relative viability ([2]; first compound 8 µM) was 0.246, the relative viability ([3]; first compound 0.253 µM) was 0.341 and the relative viability ([3]; first compound 0.8 µM) was 0.245. It also gave a relative viability ([3]; first compound 2.53 µM) of 0.259, a relative viability ([3]; first compound 8 µM) of 0.479 and a relative viability ([4]; first compound 0.253 µM) of 0.807. For the same compound, the relative viability ([4]; first compound 0.8 µM) was 0.84, the relative viability ([4]; first compound 2.53 µM) was 0.955 and the relative viability ([4]; first compound 8 µM) was 0.801. It also gave a relative viability ([5]; first compound 0.253 µM) of 1.22, a relative viability ([5]; first compound 0.8 µM) of 1.1 and a relative viability ([5]; first compound 2.53 µM) of 1.23. It also gave a relative viability ([5]; first compound 8 µM) of 1.11, a relative viability ([6]; first compound 0.253 µM) of 0.732 and a relative viability ([6]; first compound 0.8 µM) of 0.753. For the same compound, the relative viability ([6]; first compound 2.53 µM) was 0.915, the relative viability ([6]; first compound 8 µM) was 0.876 and the relative viability ([7]; first compound 0.253 µM) was 0.912. It also gave a relative viability ([7]; first compound 2.53 µM) of 1.03, a relative viability ([7]; first compound 8 µM) of 1.18 and a relative viability ([8]; first compound 0.253 µM) of 0.236. For the same compound, the relative viability ([8]; first compound 0.8 µM) was 0.249, the relative viability ([8]; first compound 2.53 µM) was 0.258 and the relative viability ([8]; first compound 8 µM) was 0.258. The relative viability ([9]; first compound 0.253 µM) was 0.651, the relative viability ([9]; first compound 2.53 µM) was 0.812 and the relative viability ([9]; first compound 8 µM) was 0.558. For the same compound, the relative viability ([10]; first compound 0.8 µM) was 0.197, the relative viability ([10]; first compound 2.53 µM) was 0.196 and the relative viability ([10]; first compound 8 µM) was 0.202. For the same compound, the relative viability ([11]; first compound 0.253 µM) was 0.157, the relative viability ([11]; first compound 0.8 µM) was 0.202 and the relative viability ([11]; first compound 2.53 µM) was 0.206. The relative viability ([11]; first compound 8 µM) was 0.196, the relative viability ([12]; first compound 0.253 µM) was 0.357 and the relative viability ([12]; first compound 2.53 µM) was 0.449. It also gave a relative viability ([12]; first compound 8 µM) of 0.495, a relative viability ([13]; first compound 0.253 µM) of 0.66 and a relative viability ([13]; first compound 0.8 µM) of 0.726. It also gave a relative viability ([13]; first compound 2.53 µM) of 0.767, a relative viability ([13]; first compound 8 µM) of 0.743 and a relative viability ([14]; first compound 0.253 µM) of 1.04. For the same compound, the relative viability ([14]; first compound 0.8 µM) was 0.99, the relative viability ([14]; first compound 2.53 µM) was 1.09 and the relative viability ([14]; first compound 8 µM) was 1.11. The relative viability ([15]; first compound 0.253 µM) was 0.487, the relative viability ([15]; first compound 0.8 µM) was 0.487 and the relative viability ([15]; first compound 2.53 µM) was 0.367. It also gave a relative viability ([15]; first compound 8 µM) of 0.437, a relative viability ([16]; first compound 0.253 µM) of 0.233 and a relative viability ([16]; first compound 0.8 µM) of 0.156. For the same compound, the relative viability ([16]; first compound 2.53 µM) was 0.14, the relative viability ([16]; first compound 8 µM) was 0.169 and the relative viability ([17]; first compound 0.253 µM) was 0.706. It also gave a relative viability ([17]; first compound 0.8 µM) of 0.744, a relative viability ([17]; first compound 2.53 µM) of 0.806 and a relative viability ([17]; first compound 8 µM) of 0.56. The relative viability ([18]; first compound 0.253 µM) was 0.214, the relative viability ([18]; first compound 0.8 µM) was 0.222 and the relative viability ([18]; first compound 2.53 µM) was 0.218. For the same compound, the relative viability ([18]; first compound 8 µM) was 0.267, the relative viability ([19]; first compound 0.253 µM) was 1.32 and the relative viability ([19]; first compound 0.8 µM) was 1.79. For the same compound, the relative viability ([19]; first compound 2.53 µM) was 1.28, the relative viability ([19]; first compound 8 µM) was 1.17 and the relative viability ([20]; first compound 0.253 µM) was 0.835. It also gave a relative viability ([20]; first compound 0.8 µM) of 0.864, a relative viability ([20]; first compound 2.53 µM) of 0.847 and a relative viability ([20]; first compound 8 µM) of 0.9. It also gave a relative viability ([21]; first compound 0.253 µM) of 0.338, a relative viability ([21]; first compound 0.8 µM) of 0.308 and a relative viability ([21]; first compound 2.53 µM) of 0.269. For the same compound, the relative viability ([21]; first compound 8 µM) was 0.4, the relative viability ([22]; first compound 0.253 µM) was 0.177 and the relative viability ([22]; first compound 0.8 µM) was 0.218. For the same compound, the relative viability ([22]; first compound 2.53 µM) was 0.198, the relative viability ([22]; first compound 8 µM) was 0.226 and the relative viability ([23]; first compound 0.253 µM) was 0.777. It also gave a relative viability ([23]; first compound 0.8 µM) of 0.891, a relative viability ([23]; first compound 2.53 µM) of 0.886 and a relative viability ([23]; first compound 8 µM) of 0.863. For the same compound, the relative viability ([24]; first compound 0.253 µM) was 0.538, the relative viability ([24]; first compound 0.8 µM) was 0.198 and the relative viability ([24]; first compound 2.53 µM) was 0.162. It also gave a relative viability ([24]; first compound 8 µM) of 0.366, a relative viability ([25]; first compound 0.253 µM) of 1.02 and a relative viability ([25]; first compound 0.8 µM) of 1.03. For the same compound, the relative viability ([25]; first compound 2.53 µM) was 1.04 and the relative viability ([25]; first compound 8 µM) was 0.953.
